In one data set the target is T1, Human CYP2C19 (Homo sapiens, UniProt P33261).
T1 construct: purchased Sumitomo Chemical; host or cells: recombinant yeast, microsomal fraction
The experiment in a line: Metabolism of herbicides in microsomes of recombinant yeast expressing human P450. It is filed as in vitro ADME.

Data set [1] deals with potato transformants. The experiment in a line: Herbicide metabolism in the potato transformants. It is filed as in vivo, potato (MayQueen). The following applies: 14C-labeled pyributicarb 10 μM in the medium; cultured for 8 days; thin layer chromatography. The method, then: The potato transformants proliferated from axillary buds, elongated to about 10 cm, were cultured in the medium added with the ^14C-labeled pyributicarb at the concentration of 10 μM. The plants were cultured for 8 days, and metabolites were extracted from the plants (Murakami, M. et al., J. Pesticide. Sci., 1997, 22, 222-225). The metabolites and the culture solution were analyzed by thin layer chromatography (Shiota, N. et al., Pestic. Biochem. Physiol., 1996, 54, 190-198).

The test system of a further data set is S1974 (human CYP2C19). In words: Herbicide tolerance assay for transformants. It is filed as in vivo, Solanum tuberosum cv. MayQueen. The following applies: acetochlor 20 μmol, atrazine 1.2 μmol, metolachlor 30 μmol dispersed. From the text:
Then, herbicides were dispersed.

The next data set has as its system S1972 (human CYP2B6). Conditions: acetochlor 20 μmol, metolachlor 30 μmol dispersed.
The test system of data set [2] is potato transformants. The experiment in a line: Assay for herbicide resistance of potato transformants (human CYP2C19). Conditions: for Resistance to herbicide: Transformant, 14 days after dispersal.
For the next data set, the system named is non-transformed MayQueen. In words: Assay for herbicide resistance, non-transformed potato. It is filed as in vivo. Conditions: 14 days after dispersal. From the text: 4, the same growth as that when herbicide was not dispersed.
Data set [3] deals with human P4502C19 gene-introduced rice. The experiment in a line: Germination assay for herbicide resistance of human P4502C19 gene-introduced rice R1 seeds. The data set is classed as in vivo.
Data set [4] has as its system seeds of Nipponbare into which the gene was not introduced. The experiment in a line: Germination assay for herbicide resistance, non-introduced rice seeds. The data set is classed as in vivo, rice (Nipponbare). Conditions: after about 4 to 7 days.
Another data set addresses T2, Human CYP2B6 (Homo sapiens, UniProt P20813).
T2 sequence (P20813 1-491): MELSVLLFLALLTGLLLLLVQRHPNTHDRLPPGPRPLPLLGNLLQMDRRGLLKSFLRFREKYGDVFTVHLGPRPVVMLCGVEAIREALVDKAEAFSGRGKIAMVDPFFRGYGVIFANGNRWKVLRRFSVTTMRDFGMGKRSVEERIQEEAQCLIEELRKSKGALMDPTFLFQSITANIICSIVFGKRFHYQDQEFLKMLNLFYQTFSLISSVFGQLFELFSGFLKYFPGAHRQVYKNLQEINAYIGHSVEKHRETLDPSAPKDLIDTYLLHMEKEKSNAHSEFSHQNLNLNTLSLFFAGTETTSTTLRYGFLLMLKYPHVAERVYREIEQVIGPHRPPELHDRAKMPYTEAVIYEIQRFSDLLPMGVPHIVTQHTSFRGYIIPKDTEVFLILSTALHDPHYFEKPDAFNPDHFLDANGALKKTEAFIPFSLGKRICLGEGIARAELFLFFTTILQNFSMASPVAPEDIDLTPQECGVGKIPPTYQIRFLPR
The experiment in a line: Metabolism of herbicides in microsomes of recombinant yeast expressing human P450. The method, then:
The reaction was carried out in a range of temperature suitable for an organism from which a p450 molecular species is derived (for example, 37° C. for human P450), by mixing with air while vigorously shaking, within a period during which an enzyme is not inactivated (for example, for 10 to 60 min).
From the height of the peak, a metabolized amount can be obtained.
To 0.1 M potassium phosphate buffer (pH 7.4), the microsomal fraction prepared from each of yeast strains respectively expressing one of 11 human P450 molecular species (obtained from Sumitomo Chemical) was added so that the amount of the p450 would be 25 pmol. Furthermore, 0.5 mM NADPH, 5 mM glucose 6 phosphate, 1 U/ml glucose 6 phosphate dehydrogenase, and 0.1 mM each of the following herbicides (those available in the market were used) were added at the final concentrations thereto to make the total volume of 100 μl. The reaction mixture was shaken at 37° C. for 60 min, and an organic solvent was added thereto for the extraction. The extract was applied to the high performance liquid chromatography, and the metabolite was measured.

In data set [5] the test system is human P4502C18 gene-introduced rice. The experiment in a line: Germination assay for herbicide resistance of human P4502C18 gene-introduced rice R1 seeds. The data set is classed as in vivo.
A further data set addresses Human CYP2C9 (Homo sapiens, UniProt P11712). The experiment in a line: Herbicide metabolism by human P450 molecular species (microsomal fraction). It is filed as in vitro ADME.
For another data set, the system named is tobacco transformants. The experiment in a line: Assay for herbicide resistance in the tobacco R0 plants (human CYP2C9). It is filed as in vivo. Also noted: Tolerance to chlorosulfuron: key: 1: almost dead; 2: severely inhibited growth; 3: slightly inferior growth; 4: the same growth as that when the herbicide was not dispersed. The following applies: for Tolerance to chlorosulfuron: cultured for 40 days. Here is the method:
(§1) Transformed and non-transformed tobacco plants proliferated from axillary buds were transferred onto hormone-free Murashige & Skoog (MS) medium containing 0, 20, 50, 100, or 200 nM chlorosulfuron for assaying tolerance at growth.
(§2) 4, the same growth as that when the herbicide was not dispersed.

For data set [6], the system named is non-transformed tobacco plants; only vector introduced. The experiment in a line: Assay for herbicide resistance in tobacco, control plants. The data set is classed as in vivo. Conditions: for Tolerance to chlorosulfuron: cultured for 40 days. Here is the method:
as §1, §2

Data set [7] concerns human P4502C9 gene-introduced rice. In words: Germination assay for herbicide resistance of human P4502C9 gene-introduced rice R1 seeds. The data set is classed as in vivo.
The test system of the next data set is tobacco R0 plants. In words: Herbicide metabolism in the tobacco R0 plants. It is filed as in vivo. Conditions: 14C-labeled 0.5 mM chlorosulfuron (20 μl) on the leaf surface; 50 hours; thin layer chromatography. The method, then:
Using the tobacco R0 plants 3 weeks after transplantation, metabolism of chlorosulfuron was measured by the method of Sweetser et al. (Sweetser, P. B. et al., Pestic. Biochem. Physiol., 1982, 17, 18-23). ^14C-labeled 0.5 mM chlorosulfuron (20 μl) was spread on the leaf surface. The leaf surface was washed with acetone 50 hours after the treatment, and a metabolite was extracted by acetone extraction. The extract was concentrated and dried by a rotary evaporator, dissolved in methanol, and analyzed by thin layer chromatography using benzene:acetone:formic acid (30:10:1) as an solvent.

T1 sequence (P33261 whole entry): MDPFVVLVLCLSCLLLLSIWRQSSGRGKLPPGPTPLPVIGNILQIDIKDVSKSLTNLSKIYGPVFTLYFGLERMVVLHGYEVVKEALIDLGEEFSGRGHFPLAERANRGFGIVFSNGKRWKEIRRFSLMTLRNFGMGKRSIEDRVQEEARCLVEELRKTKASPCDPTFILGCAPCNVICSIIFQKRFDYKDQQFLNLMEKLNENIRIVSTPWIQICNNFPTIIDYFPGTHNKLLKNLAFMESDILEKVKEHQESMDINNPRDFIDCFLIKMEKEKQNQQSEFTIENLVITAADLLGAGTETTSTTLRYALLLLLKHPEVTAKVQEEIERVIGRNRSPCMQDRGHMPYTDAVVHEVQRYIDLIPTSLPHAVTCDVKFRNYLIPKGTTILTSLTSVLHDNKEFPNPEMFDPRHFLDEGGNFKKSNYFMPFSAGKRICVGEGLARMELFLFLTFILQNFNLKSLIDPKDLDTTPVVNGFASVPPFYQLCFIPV
Sequence of Human CYP2C9 (P11712 whole entry): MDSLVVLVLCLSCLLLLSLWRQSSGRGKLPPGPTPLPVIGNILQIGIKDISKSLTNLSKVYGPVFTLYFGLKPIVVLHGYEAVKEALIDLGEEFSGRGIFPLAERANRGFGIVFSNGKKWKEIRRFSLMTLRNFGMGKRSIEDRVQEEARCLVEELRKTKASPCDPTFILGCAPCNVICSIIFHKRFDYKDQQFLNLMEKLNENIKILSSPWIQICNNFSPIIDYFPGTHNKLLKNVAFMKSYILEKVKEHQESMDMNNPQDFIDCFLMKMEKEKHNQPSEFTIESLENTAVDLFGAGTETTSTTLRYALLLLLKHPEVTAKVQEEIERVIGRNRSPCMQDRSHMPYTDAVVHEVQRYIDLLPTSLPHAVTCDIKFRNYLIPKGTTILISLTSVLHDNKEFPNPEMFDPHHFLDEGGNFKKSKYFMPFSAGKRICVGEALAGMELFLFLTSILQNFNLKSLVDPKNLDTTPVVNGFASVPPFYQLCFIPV

Consider `COc1cccc(N(C)C(=S)Oc2cccc(C(C)(C)C)c2)n1` [pyributicarb], for which the metabolic reaction confirmed entry at Human CYP2C19 is given as “thioester cleavage”. Further, the “amounts of pyributicarb in transgenic plant and in the medium compared with non-transformed MayQueen” value with potato transformants [1] is given as “obviously reduced”.
Turning to `CCc1cccc(C)c1N(C(=O)CCl)C(C)COC` (stereo not shown) [metolachlor], the “resistance of the transformant to the herbicide” value in the data set with S1974 (human CYP2C19) and in the data set with S1972 (human CYP2B6) was “strong resistance” throughout. In addition, the Resistance to herbicide in the data set on potato transformants [2] (Metolachlor 10 μmol/pot) worked out at 2.5; with potato transformants [2] (Metolachlor 15 μmol/pot), 3.5; in the data set on potato transformants [2] (Metolachlor 20 μmol/pot) it was 2.5; in the data set on non-transformed MayQueen (Metolachlor 10 μmol/pot), 2; in the data set on non-transformed MayQueen (Metolachlor 15 μmol/pot), 2; in the data set on non-transformed MayQueen (Metolachlor 20 μmol/pot) it was 1.5. Besides, the “resistance of the transformant compared with the non-transformed MayQueen” value in the data set on potato transformants [2] (herbicide dispersed 1 week after transfer to pots) is listed as “higher resistance”. The “The number of tolerant lines” value in data set [3] (2C19, 4 μM · 2 ml, 68 sample lines) came to 13; in data set [5] (2C18, 4 μM · 2 ml, 72 sample lines), 3. The “elongation of shoots and roots of segregated individuals” value in data set [3] (metolachlor 4 μM) and in data set [5] (metolachlor 4 μM) was “normally elongated” throughout. The Germination of seeds entry is recorded as “inhibited” in data set [4] ([…] metolachlor, […] alachlor, 15 μM triflurarin) and “inhibited” in data set [4] (metolachlor 4 μM). For the same compound, the metabolic reaction confirmed result on Human CYP2B6 is on record as “O-deethylation, O-demethylation”.
In the case of `COc1nc(C)nc(NC(=O)NS(=O)(=O)c2ccccc2Cl)n1` [chlorosulfuron], the metabolic reaction confirmed result on Human CYP2C9 is listed as “ring hydroxylation”. Also, in the data set on tobacco transformants (200 nM chlorosulfuron), the “growth of the transformants” value is listed as “grew”. The Tolerance to chlorosulfuron with tobacco transformants (transformant N8, 20 nM) is 4; in the data set on tobacco transformants (transformant N8, 50 nM), 4; in the data set on tobacco transformants (transformant N8, 100 nM), 2.5; in the data set with tobacco transformants (transformant N8, 200 nM) it was 2; in the data set with tobacco transformants (transformant N60, 20 nM), 4; in the data set with tobacco transformants (transformant N60, 50 nM), 4. Further, the Tolerance to chlorosulfuron amounted to 3 in the data set on tobacco transformants (transformant N60, 100 nM); 3 with tobacco transformants (transformant N60, 200 nM); 4 with tobacco transformants (transformant N61, 20 nM); 4 in the data set on tobacco transformants (transformant N61, 50 nM); 2 in the data set with tobacco transformants (transformant N61, 100 nM); 2 in the data set on tobacco transformants (transformant N61, 200 nM). Also, the Tolerance to chlorosulfuron with tobacco transformants (transformant N69, 20 nM) is on record as 4; with tobacco transformants (transformant N69, 50 nM), 4; with tobacco transformants (transformant N69, 100 nM), 2; in the data set on tobacco transformants (transformant N69, 200 nM) it was 2; in data set [6] (Non-transformed, 20 nM), 2; in data set [6] (Non-transformed, 50 nM) it was 1.5. For the same compound, the Tolerance to chlorosulfuron in data set [6] (Non-transformed, 100 nM) is 1; in [6] (Non-transformed, 200 nM), 0.5; in data set [6] (Only vector introduced, 20 nM) it was 2; in [6] (Only vector introduced, 50 nM), 1.5; in [6] (Only vector introduced, 100 nM) it was 1; in data set [6] (Only vector introduced, 200 nM) it was 0.5. In [6] (50 nM chlorosulfuron), the “growth of the non-transformed plants” value is on record as “completely inhibited”. Further, the “The number of tolerant lines” value in [7] (2C9, 250 nM · 2 ml, 44 sample lines) came out at 15. Moreover, in data set [7] (chlorosulfuron 250 nM), the “elongation of shoots and roots of segregated individuals” value is recorded as “normally elongated”. The “water-soluble substances which remained at the starting point of the development, in the transformants” value in the data set on tobacco R0 plants is listed as “increased”. Moreover, the Germination of seeds entry in [4] (chlorosulfuron 250 nM) was “inhibited”.

For the origin of these results see patent publication US6613961B1, “Plants capable of metabolizing drugs and use thereof” (priority 1998, dated 2003).
